Patent publication US20170121344A1 (Siga Technologies, Inc., priority 2009, published 2017)
Like-named read-outs stand apart in the source and are kept apart here.

Key:
[1] = system: Dengue-2 (Strain New Guinea C); experiment: Viral yield assay against Dengue-2 in Vero cells; format: cell-based, Dengue virus; conditions: Dengue virus, DENV2, Vero cells, read-out: Activity (EC50 in μM) DENV-2
How it was run: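 Virus yield, titered on Vero cells from cultures harvested at 48 h post infection, gave the EC50. Cultures were infected at MOI 0.1 with dengue-2 and treated with compound or DMSO at 37° C. DENV-1 and DENV-4 were determined similarly.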

DENV-4 = experiment: Viral yield assay against DENV-4 in Vero cells; format: cell-based; conditions: Dengue virus
Procedure: (§1) Compounds that were active in the primary screen were tested for activity in viral yield assays. […] Vero cells in 12-well plates were infected with dengue-2 virus at a multiplicity of infection (MOI) of 0.1, treated with compound (or DMSO as a control), incubated at 37° C., harvested 48 hours post infection and titered on Vero cells as described above. The EC50 was calculated through ExcelFit. Activities against other serotypes of dengue virus were determined in a similar way.

DENV-3 = experiment: Viral yield assay against DENV-3 in Vero cells; format: cell-based; conditions: Dengue virus
Procedure: as §1

DENV-1 = experiment: Viral yield assay against DENV-1 in Vero cells; format: cell-based; conditions: Dengue virus
Procedure: as §1

[2] = viral yield assay, MOI 0.1, 48 hours post infection

Measured: EC50

O=C(O)CNc1c(C(=O)Nc2cccc(C(F)(F)F)c2)sc2nc(-c3cccs3)ccc12 [Compound 305, 2-[[6-(2-thienyl)-2-[[3-(trifluoromethyl)phenyl]carbamoyl]thieno[2,3-b]pyridin-3-yl]amino]acetic acid]
< 5 µM: [1] | DENV-4; DENV4 | DENV-1; DENV1
5 to 25 µM: DENV-3; DENV3

O=C1CCC(=O)N(c2cccc(C(F)(F)F)c2)C(=O)c2sc3nc(-c4cccs4)ccc3c2N1 [Compound 306, 2-(thiophen-2-yl)-10-(3-(trifluoromethyl)phenyl)-7,8-dihydro-5H-pyrido[3′,2′:4,5]thieno[3,2-b][1,5]diazonine-6,9,11(10H)-trione]
< 5 µM: [1]; [2] | DENV-4; DENV4, viral yield assay | DENV-3; DENV3, viral yield assay | DENV-1; DENV1, viral yield assay

CNCC(=O)Nc1c(C(=O)Nc2cccc(C(F)(F)F)c2)sc2nc(-c3cccs3)ccc12 [Compound 307, 3-[[2-(methylamino)acetyl]amino]-6-(2-thienyl)-N-[3-(trifluoromethyl)phenyl]thieno[2,3-b]pyridine-2-carboxamide]
< 5 µM: [1] | DENV-4; DENV4 | DENV-3; DENV3 | DENV-1; DENV1

C[N+](C)(C)CC(=O)Nc1c(C(=O)Nc2cccc(C(F)(F)F)c2)sc2nc(-c3cccs3)ccc12 [Compound 309, Trimethyl-[2-oxo-2-[[6-(2-thienyl)-2-[[3-(trifluoromethyl)phenyl]carbamoyl]thieno[2,3-b]pyridin-3-yl]amino]ethyl]ammonium]
< 5 µM: [1] | DENV-4; DENV4 | DENV-3; DENV3 | DENV-1; DENV1

CCOC(=O)CCC(=O)Nc1c(C(=O)Nc2cccc(C(F)(F)F)c2)sc2nc(-c3cccs3)ccc12 [Compound 310, Ethyl 4-oxo-4-[[6-(2-thienyl)-2-[[3-(trifluoromethyl)phenyl]carbamoyl]thieno[2,3-b]pyridin-3-yl]amino]butanoate]
< 5 µM: [1] | DENV-4; DENV4 | DENV-3; DENV3 | DENV-1; DENV1

O=C(O)CCC(=O)Nc1c(C(=O)Nc2cccc(C(F)(F)F)c2)sc2nc(-c3cccs3)ccc12 [Compound 311, 4-oxo-4-[[6-(2-thienyl)-2-[[3-(trifluoromethyl)phenyl]carbamoyl]thieno[2,3-b]pyridin-3-yl]amino]butanoic acid]
< 5 µM: [1] | DENV-4; DENV4 | DENV-3; DENV3 | DENV-1; DENV1

CN(C)CC(=O)Nc1c(C(=O)Nc2ccc(OC(F)(F)F)cc2)sc2nc3c(cc12)CN(C)CC3 [Compound 312, 3-[[2-(dimethylamino)acetyl]amino]-6-methyl-N-[4-(trifluoromethoxy)phenyl]-7,8-dihydro-5H-thieno[2,3-b][1,6]naphthyridine-2-carboxamide]
< 5 µM: [1] | DENV-4; DENV4 | DENV-3; DENV3 | DENV-1; DENV1

CCNc1c(C(=O)Nc2cccc(C(F)(F)F)c2)sc2nc(-c3cccs3)ccc12 [Compound 321, 3-(ethylamino)-6-(2-thienyl)-N-[3-(trifluoromethyl)phenyl]thieno[2,3-b]pyridine-2-carboxamide]
< 5 µM: [1] | DENV-4; DENV4 | DENV-3; DENV3 | DENV-1; DENV1

CN(C(=O)c1sc2nc(-c3cccs3)ccc2c1N)c1cccc(C(F)(F)F)c1 [Compound 322, 3-amino-N-methyl-6-(2-thienyl)-N-[3-(trifluoromethyl)phenyl]thieno[2,3-b]pyridine-2-carboxamide]
< 5 µM: [1]; [2] | DENV-4; DENV4, viral yield assay | DENV-3; DENV3, viral yield assay | DENV-1; DENV1, viral yield assay

N#Cc1c(O)nc2sc(C(=O)Nc3ccc(Br)cc3)c(N)c2c1-c1ccco1 [Compound 325, 3-amino-N-(4-bromophenyl)-5-cyano-4-(2-furyl)-6-hydroxy-thieno[2,3-b]pyridine-2-carboxamide]
< 5 µM: [1]; [2] | DENV-4; DENV4, viral yield assay | DENV-3; DENV3, viral yield assay | DENV-1; DENV1, viral yield assay
